Measured values published in US9073974B2, “RGD-containing cyclic peptides” (The Regents of the University of California, priority 2009, dated 2015).
Numbered stars: 1 amine (or outer) side, 2 acyl side, 3 side chain; on linkers, the order of the positions; unused ones are H or OH. Bridge positions count the residues as written; N and C are the ends. Square brackets hold non-standard residues; d marks the D form. Peptide text beside a SMILES is read from it. * marks the point of attachment. Benzoyl(4-NO2) = O=C(c1ccc([N+](=O)[O-])cc1)*; Pro(5R-Ph) = O=C(O)[C@@H]1CC[C@H](c2ccccc2)N1; Benzoyl(4-CF3) = O=C(c1ccc(C(F)(F)F)cc1)*; N(CH2CH2COOH)Gly = O=C(O)CCNCC(=O)O; Cyclohexylacetyl = O=C(CC1CCCCC1)*; X2 = O=C(C1(N[*:1])CCC(O)CC1)[*:2]; 2Naphthoyl = O=C(c1ccc2ccccc2c1)*; Hydrocinnamoyl = O=C(CCc1ccccc1)*; NMeR = CN[C@@H](CCCNC(=N)N)C(=O)O; hArg = N=C(N)NCCCC[C@H](N)C(=O)O; NMeD = CN[C@@H](CC(=O)O)C(=O)O; dPen = CC(C)(S)[C@@H](N)C(=O)O; dTle = CC(C)(C)[C@@H](N)C(=O)O; Agp = N=C(N)NC[C@H](N)C(=O)O; Nicotinoyl = O=C(c1cccnc1)*; Carboxymethyl = O=C(O)C*; Pentanoyl = CCCCC(=O)*; βAla = NCCC(=O)O; Sar = CNCC(=O)O

Target: αvβ3 integrin (Homo sapiens, UniProt P05106+P06756)
Assay: Inhibition of biotinylated LXW7 binding to αvβ3-K562 cells (flow cytometry)
Set-up: expressed in transfected cells; host or cells: K562 (gift of Dr. Yoshikazu Takada, UC Davis)
Conditions: LXW9-92: inhibiting the binding of biotinylated LXW7 against αvβ3-K562 cells
Procedure: The apparent IC50 were calculated using Graph Prism software (≦www.graphpad.com≧).
The samples were analyzed with Coulter XL-MCL flow cytometry. The histogram and mean fluorescence intensity (MFI) were determined. The apparent Kd, IC50 were calculated using Graph Prism software (≦www.graphpad.com≧).

αvβ3 integrin, sequence (P06756 31-889 limits assumed): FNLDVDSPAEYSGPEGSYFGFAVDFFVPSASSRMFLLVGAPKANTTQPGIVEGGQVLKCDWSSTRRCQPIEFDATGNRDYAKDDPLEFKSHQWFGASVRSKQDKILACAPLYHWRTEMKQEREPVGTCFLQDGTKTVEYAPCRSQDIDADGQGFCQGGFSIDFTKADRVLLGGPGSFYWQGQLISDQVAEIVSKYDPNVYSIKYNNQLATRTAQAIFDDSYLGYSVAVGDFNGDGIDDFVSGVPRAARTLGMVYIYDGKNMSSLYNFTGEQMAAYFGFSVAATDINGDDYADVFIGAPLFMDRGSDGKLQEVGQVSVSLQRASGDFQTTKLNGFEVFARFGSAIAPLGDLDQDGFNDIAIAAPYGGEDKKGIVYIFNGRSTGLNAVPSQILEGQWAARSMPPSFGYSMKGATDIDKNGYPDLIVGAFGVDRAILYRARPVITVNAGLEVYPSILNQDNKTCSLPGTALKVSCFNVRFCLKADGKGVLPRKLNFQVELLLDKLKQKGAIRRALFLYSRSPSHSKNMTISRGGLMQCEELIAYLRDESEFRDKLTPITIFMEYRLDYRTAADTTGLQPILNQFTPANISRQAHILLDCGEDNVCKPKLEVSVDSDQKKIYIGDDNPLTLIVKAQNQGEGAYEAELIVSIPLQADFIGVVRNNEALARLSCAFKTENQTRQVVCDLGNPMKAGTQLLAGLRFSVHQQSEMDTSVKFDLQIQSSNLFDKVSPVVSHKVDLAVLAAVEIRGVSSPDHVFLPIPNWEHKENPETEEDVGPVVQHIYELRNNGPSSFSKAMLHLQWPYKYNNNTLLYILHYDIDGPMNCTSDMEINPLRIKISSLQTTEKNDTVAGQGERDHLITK
αvβ3 integrin, sequence (P06756 891-1048 partner limits assumed): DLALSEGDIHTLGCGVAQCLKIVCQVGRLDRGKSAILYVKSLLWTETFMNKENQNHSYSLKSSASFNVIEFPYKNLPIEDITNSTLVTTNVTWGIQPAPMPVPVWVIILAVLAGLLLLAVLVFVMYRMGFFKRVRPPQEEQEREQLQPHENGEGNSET
αvβ3 integrin, sequence (P05106 27-788): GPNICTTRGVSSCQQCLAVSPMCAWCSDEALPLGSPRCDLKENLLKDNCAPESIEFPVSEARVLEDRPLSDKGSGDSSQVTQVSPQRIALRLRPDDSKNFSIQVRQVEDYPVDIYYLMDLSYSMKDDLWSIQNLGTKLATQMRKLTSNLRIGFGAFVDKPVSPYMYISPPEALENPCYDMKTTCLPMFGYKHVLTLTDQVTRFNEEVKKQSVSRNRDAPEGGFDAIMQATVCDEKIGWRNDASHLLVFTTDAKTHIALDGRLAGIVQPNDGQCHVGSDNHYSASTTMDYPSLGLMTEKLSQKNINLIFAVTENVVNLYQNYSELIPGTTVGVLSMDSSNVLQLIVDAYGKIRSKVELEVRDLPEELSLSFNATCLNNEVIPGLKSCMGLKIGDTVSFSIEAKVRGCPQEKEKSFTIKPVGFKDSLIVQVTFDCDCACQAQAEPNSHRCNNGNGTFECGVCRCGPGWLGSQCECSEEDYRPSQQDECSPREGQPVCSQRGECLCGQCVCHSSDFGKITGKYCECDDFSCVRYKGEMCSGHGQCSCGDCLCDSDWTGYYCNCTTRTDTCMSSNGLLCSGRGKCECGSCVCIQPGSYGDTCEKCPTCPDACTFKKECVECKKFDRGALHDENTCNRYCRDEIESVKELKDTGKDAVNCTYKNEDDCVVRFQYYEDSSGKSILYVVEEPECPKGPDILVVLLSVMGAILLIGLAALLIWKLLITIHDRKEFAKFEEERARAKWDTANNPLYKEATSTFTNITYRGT

SMILES	IC50 (class symbols)	IC50 (LXW7 as internal reference)
CC(C)[C@H]1NC(=O)[C@@H](CC(=O)O)NC(=O)[C@H](CC(=O)O)NC(=O)CNC(=O)[C@H](CCCNC(=N)N)NC(=O)CNC(=O)[C@H](NC(=O)c2ccc(C(F)(F)F)cc2)CSSC[C@H](C(N)=O)NC1=O [LXW85, 4-(trifluoromethyl)benzoyl-cGRGDdvc] ({Benzoyl(4-CF3)}-[dC]GRGD[dD][dV][dC]-NH2; disulfide 1-8)	< 1 µM	–
CC(C)[C@H]1NC(=O)[C@@H](CC(=O)O)NC(=O)[C@H](CC(=O)O)NC(=O)CNC(=O)[C@H](CCCNC(=N)N)NC(=O)CNC(=O)[C@H](NC(=O)c2cccnc2)CSSC[C@H](C(N)=O)NC1=O [LXW92, nicotinyl-cGRGDdvc] (Nicotinoyl-[dC]GRGD[dD][dV][dC]-NH2; disulfide 1-8)	1 to 10 µM	–
CC(C)[C@H]1NC(=O)[C@@H](CC(=O)O)NC(=O)[C@H](CC(=O)O)NC(=O)CNC(=O)[C@H](CNC(=N)N)NC(=O)CNC(=O)[C@H](N)CSSC[C@H](C(N)=O)NC1=O [LXW58, cG-Agp-GDdvc] (H-[dC]G[Agp]GD[dD][dV][dC]-NH2; disulfide 1-8)	–	> 20 µM
N=C(N)NCCC[C@@H]1NC(=O)CNC(=O)[C@@H](N)CSSC[C@@H](C(N)=O)NC(=O)[C@@H](Cc2cccc3ccccc23)NC(=O)[C@@H](CC(=O)O)NC(=O)[C@H](CC(=O)O)NC(=O)CNC1=O [LXW47, CGRGDd-DNal1-C]	1 to 10 µM	–
CC[C@@H](C)[C@H]1NC(=O)C2(CCC(O)CC2)NC(=O)[C@H](CC(=O)O)NC(=O)CNC(=O)[C@H](CCCNC(=N)N)NC(=O)CN(C)C(=O)[C@H](N)CSSC[C@@H](C(N)=O)NC1=O (stereo partly shown) [LXW42, c-Sar-RGD-Ahch-iC] (H-[dC][Sar]RGD[X2][dI]C-NH2; disulfide 1-8)	–	> 20 µM
N=C(N)NCCC[C@@H]1NC(=O)CNC(=O)[C@H](N)CSSC[C@H](C(N)=O)NC(=O)[C@@H](Cc2cccc3ccccc23)NC(=O)[C@@H](CC(=O)O)NC(=O)[C@H](CC(=O)O)NC(=O)CNC1=O [LXW64, cGRGDd-DNal1-c]	< 1 µM	–
N=C(N)NCCC[C@@H]1NC(=O)CNC(=O)[C@@H](N)CSSC[C@H](C(N)=O)NC(=O)[C@@H]2CC[C@H](c3ccccc3)N2C(=O)CN(CCC(=O)O)C(=O)[C@H](CC(=O)O)NC(=O)CNC1=O [LXW46, CGRGD-Nglu-Ppca-c] (H-CGRGD[N(CH2CH2COOH)Gly][Pro(5R-Ph)][dC]-NH2; disulfide 1-8)	–	> 20 µM
N=C(N)NCCC[C@@H]1NC(=O)CNC(=O)[C@H](N)CSSC[C@H](C(N)=O)NC(=O)[C@@H](Cc2cccs2)NC(=O)[C@@H](CC(=O)O)NC(=O)[C@H](CC(=O)O)NC(=O)CNC1=O [LXW67, cGRGDd-D2Thi-c]	< 1 µM	–
N=C(N)NCCC[C@@H]1NC(=O)CNC(=O)[C@H](N)CSSC[C@@H](C(N)=O)NC(=O)C2(CCOCC2)NC(=O)[C@@H](CC(=O)O)NC(=O)[C@H](CC(=O)O)NC(=O)CNC1=O [LXW41, cGRGDd-Actp-C]	–	> 20 µM
CC(C)[C@H]1NC(=O)[C@@H](CC(=O)O)NC(=O)[C@H](CC(=O)O)NC(=O)CNC(=O)[C@H](CCCNC(=N)N)NC(=O)[C@@H](C)NC(=O)[C@H](N)CSSC[C@H](C(N)=O)NC1=O [LXW13, caRGDdvc] (H-[dC][dA]RGD[dD][dV][dC]-NH2; disulfide 1-8)	1 to 10 µM	–
CC(C)[C@H]1NC(=O)[C@@H](CC(=O)O)NC(=O)[C@H](CC(=O)O)NC(=O)CNC(=O)[C@H](CCCNC(=N)N)NC(=O)CNC(=O)[C@H](NC(=O)CCc2ccccc2)CSSC[C@H](C(N)=O)NC1=O [LXW80, 3-phenyl propionyl-cGRGDdvc] (Hydrocinnamoyl-[dC]GRGD[dD][dV][dC]-NH2; disulfide 1-8)	< 1 µM	–
CC(C)[C@H]1NC(=O)[C@@H](CC(=O)O)NC(=O)[C@H](CC(=O)O)NC(=O)CNC(=O)[C@H](CCCNC(=N)N)N(C)C(=O)CNC(=O)[C@H](N)CSSC[C@H](C(N)=O)NC1=O [LXW53, cG-(NMe)Arg-GDdvc] (H-[dC]G[NMeR]GD[dD][dV][dC]-NH2; disulfide 1-8)	< 1 µM	–
CN1CC(=O)N[C@@H](CCCNC(=N)N)C(=O)NCC(=O)N[C@@H](CC(=O)O)C(=O)NC2(CCC(O)CC2)C(=O)N[C@H](C(C)(C)C)C(=O)N[C@@H](C(N)=O)CSSC[C@@H](N)C1=O (stereo partly shown) [LXW33, c-Sar-RGD-Ahch-DBug-c] (H-[dC][Sar]RGD[X2][dTle][dC]-NH2; disulfide 1-8)	–	> 20 µM
CC(C)[C@H]1NC(=O)[C@@H](CC(=O)O)NC(=O)[C@H](CC(=O)O)NC(=O)CNC(=O)[C@H](CCCNC(=N)N)NC(=O)CNC(=O)[C@H](NC(=O)c2ccc([N+](=O)[O-])cc2)CSSC[C@H](C(N)=O)NC1=O [LXW82, 4-nitrobezoyl-cGRGDdvc] ({Benzoyl(4-NO2)}-[dC]GRGD[dD][dV][dC]-NH2; disulfide 1-8)	1 to 10 µM	–
N=C(N)NCCC[C@@H]1NC(=O)CNC(=O)[C@H](N)CSSC[C@H](C(N)=O)NC(=O)[C@@H](Cc2csc3ccccc23)NC(=O)[C@@H](CC(=O)O)NC(=O)[C@H](CC(=O)O)NC(=O)CNC1=O [LXW48, cGRGDd-DBta-c]	< 1 µM	–
CC(C)[C@H]1NC(=O)[C@@H](CC(=O)O)NC(=O)[C@H](CC(=O)O)NC(=O)CNC(=O)[C@H](CCCNC(=N)N)NC(=O)CNC(=O)[C@H](N)CSSC(C)(C)[C@H](C(N)=O)NC1=O [LXW21, cGRGDdv-DPen] (H-[dC]GRGD[dD][dV][dPen]-NH2; disulfide 1-8)	1 to 10 µM	–

SMILES	IC50 (class symbols)	IC50 (LXW7 as internal reference)
CC(C)[C@@]1(C)NC(=O)[C@@H](CC(=O)O)NC(=O)[C@H](CC(=O)O)NC(=O)CNC(=O)[C@H](CCCNC(=N)N)NC(=O)CNC(=O)[C@H](N)CSSC[C@H](C(N)=O)NC1=O [LXW23, cGRGDd-D(CaMe)Val-c]	> 10 µM	–
CN1CC(=O)N[C@@H](CCCNC(=N)N)C(=O)NCC(=O)N[C@@H](CC(=O)O)C(=O)N[C@@H](Cc2ccc(OCC(=O)O)cc2)C(=O)N[C@H](CC(=O)O)C(=O)N[C@H](C(N)=O)CSSC[C@H](N)C1=O [LXW44, C-Sar-RGD-Bmp-dC] (H-C[Sar]RGDY(Carboxymethyl)[dD]C-NH2; disulfide 1-8)	–	> 20 µM
CC(C)[C@H]1NC(=O)[C@@H](CC(=O)O)NC(=O)[C@H](CC(=O)O)NC(=O)CNC(=O)[C@H](CCCNC(=N)N)NC(=O)CNC(=O)[C@H](NC(=O)c2ccc3ccccc3c2)CSSC[C@H](C(N)=O)NC1=O [LXW89, 2-naphthoyl-cGRGDdvc] (2Naphthoyl-[dC]GRGD[dD][dV][dC]-NH2; disulfide 1-8)	< 1 µM	–
CC(C)[C@H]1NC(=O)[C@@H](CC(=O)O)NC(=O)[C@H](CC(=O)O)NC(=O)CNC(=O)[C@H](CCCCNC(=N)N)NC(=O)CNC(=O)[C@H](N)CSSC[C@H](C(N)=O)NC1=O [LXW51, cG-HoArg-GDdvc] (H-[dC]G[hArg]GD[dD][dV][dC]-NH2; disulfide 1-8)	–	> 20 µM
CC(C)[C@H]1NC(=O)[C@@H](CC(=O)O)NC(=O)[C@H](CC(=O)O)NC(=O)CNC(=O)[C@H](CCCNC(=N)N)NC(=O)CCNC(=O)[C@H](N)CSSC[C@H](C(N)=O)NC1=O [LXW15, c-β-alanine-RGDdvc] (H-[dC][βAla]RGD[dD][dV][dC]-NH2; disulfide 1-8)	1 to 10 µM	–
CN1CC(=O)N[C@@H](CCCNC(=N)N)C(=O)NCC(=O)N[C@@H](CC(=O)O)C(=O)N[C@H](CC(=O)O)C(=O)NC2(CCOCC2)C(=O)N[C@H](C(N)=O)CSSC[C@@H](N)C1=O [LXY38, c-Sar-RGDd-Actp-C]	–	> 20 µM
C#CC[C@H]1NC(=O)[C@@H](CC(=O)O)NC(=O)[C@H](CC(=O)O)NC(=O)CNC(=O)[C@H](CCCNC(=N)N)NC(=O)CN(C)C(=O)[C@H](N)CSSC[C@@H](C(N)=O)NC1=O [LXW37, c-Sar-RGDd-DPra-C]	> 10 µM	–
C=CC[C@H]1NC(=O)[C@@H](CC(=O)O)NC(=O)[C@H](CC(=O)O)NC(=O)CNC(=O)[C@H](CCCNC(=N)N)NC(=O)CNC(=O)[C@H](N)CSSC[C@@H](C(N)=O)NC1=O [LXW34, cGRGDd-DAgl-C]	–	> 20 µM
N=C(N)NCCC[C@@H]1NC(=O)CNC(=O)[C@H](N)CSSC[C@H](C(N)=O)NC(=O)[C@@H](Cc2c[nH]c3ccccc23)NC(=O)[C@@H](CC(=O)O)NC(=O)[C@H](CC(=O)O)NC(=O)CNC1=O [LXW68, cGRGDdwc] (H-[dC]GRGD[dD][dW][dC]-NH2; disulfide 1-8)	< 1 µM	–
CN1CC(=O)N[C@@H](CCCNC(=N)N)C(=O)NCC(=O)N[C@@H](CC(=O)O)C(=O)N[C@H](CC(=O)O)C(=O)NC2(CCOCC2)C(=O)N[C@H](C(N)=O)CSSC[C@H](N)C1=O [LXW36, C-Sar-RGDd-Actp-C]	–	> 20 µM
N=C(N)NCCC[C@@H]1NC(=O)CNC(=O)[C@H](N)CSSC[C@H](C(N)=O)NC(=O)[C@@H]2CC[C@H](c3ccccc3)N2C(=O)[C@@H](CCC(=O)O)NC(=O)[C@H](CC(=O)O)NC(=O)CNC1=O [LXW71, cGRGDe-Ppca-c] (H-[dC]GRGD[dE][Pro(5R-Ph)][dC]-NH2; disulfide 1-8)	1 to 10 µM	–
CC(C)[C@H]1NC(=O)[C@@H](CC(=O)O)NC(=O)[C@H](CC(=O)O)N(C)C(=O)CNC(=O)[C@H](CCCNC(=N)N)NC(=O)CNC(=O)[C@H](N)CSSC[C@H](C(N)=O)NC1=O [LXW55, cGRG-(NMe)Asp-dvc] (H-[dC]GRG[NMeD][dD][dV][dC]-NH2; disulfide 1-8)	–	> 20 µM
CC(C)(C)[C@H]1NC(=O)[C@@H](CC(=O)O)NC(=O)[C@H](CC(=O)O)NC(=O)CNC(=O)[C@H](CCCNC(=N)N)NC(=O)CNC(=O)[C@H](N)CSSC[C@H](C(N)=O)NC1=O [LXW18, cGRGDd-DBug-c]	< 1 µM	–
CC(C)[C@H]1NC(=O)[C@@H](CC(=O)O)NC(=O)[C@H](CC(=O)O)NC(=O)CNC(=O)[C@H](CCCNC(=N)N)NC(=O)CNC(=O)[C@H](NC(=O)CC2CCCCC2)CSSC[C@H](C(N)=O)NC1=O [LXW78, cyclohexyl acetyl-cGRGDdvc] (Cyclohexylacetyl-[dC]GRGD[dD][dV][dC]-NH2; disulfide 1-8)	1 to 10 µM	–
CCCCC(=O)N[C@@H]1CSSC[C@H](C(N)=O)NC(=O)[C@@H](C(C)C)NC(=O)[C@@H](CC(=O)O)NC(=O)[C@H](CC(=O)O)NC(=O)CNC(=O)[C@H](CCCNC(=N)N)NC(=O)CNC1=O [LXW77, valeryl-cGRGDdvc] (Pentanoyl-[dC]GRGD[dD][dV][dC]-NH2; disulfide 1-8)	1 to 10 µM	–
